The SangsterLogP compilation

Compound | logP
CCCCCCCCNC(=C[N+](=O)[O-])NS(=O)(=O)c1cnccc1NCCCCCCCC | 2.86
CCCCCCNC(=C[N+](=O)[O-])NS(=O)(=O)c1cnccc1NCCCCCC | 1.67
CCCCCCCCNc1ccncc1S(=O)(=O)NC(=C[N+](=O)[O-])NCCCCCC | 2.31
CCNc1ccncc1S(=O)(=O)NC(=C[N+](=O)[O-])NC(C)C | -0.48
CCCCCCCNc1ccncc1S(=O)(=O)NC(=C[N+](=O)[O-])NCCCCCC | 1.99
CCCCCCCCNc1ccncc1S(=O)(=O)NC(=C[N+](=O)[O-])NCCCCCCC | 2.59
CCCCCCNC(=C[N+](=O)[O-])NS(=O)(=O)c1cnccc1Nc1cccc(C)c1 | 1.66
CCCCCCCCNC(=C[N+](=O)[O-])NS(=O)(=O)c1cnccc1NCCCCCC | 2.27
O=[N+]([O-])C=C(NC1CCCCC1)NS(=O)(=O)c1cnccc1NC1CCCCC1 | 1.59
CCCCCCCNC(=C[N+](=O)[O-])NS(=O)(=O)c1cnccc1NCCCCCCC | 2.3
CCCCCCCNC(=C[N+](=O)[O-])NS(=O)(=O)c1cnccc1NCCCCCC | 1.97
